Test results: patent US6608073B1 (New Millennium Pharmaceutical Research, Inc., priority 1998, dated 2003)

Key:
[1] = Plasma levels of codeine in rats after intravenous or intranasal administration (HPLC)
Experimental: One hundred μL of rat plasma was treated with 100 μL of acetonitrile to precipitate the proteins. This mixture was centrifuged for 5 minutes at 5,000×g. The clear supernatant was injected onto the HPLC column.
The HPLC system included the following:
Column: Altex 5 micron Ultrasphere, 4.6 mm×25 cm
Mobile Phase: Acetonitrile: 0.01 M Acetate buffer (pH 4.0)−50:50
Standard Curve: See FIG. 1

[2] = Penetration of codeine into CSF of rats after intravenous or intranasal administration (HPLC); details: 60 minutes post-dose
Experimental: At 60 minutes post-dose, the rats were sacrificed, and the CSF (0.1 ml) was recovered and injected directly onto the HPLC column.

[3] = in vivo; cited from earlier work
[4] = rat, plasma, inhaled or intranasal, 10 mg/kg
[5] = rat, plasma, other: intranasal, 5 mg/kg
[6] = rat, plasma, other: intranasal, 10 mg/kg

COc1ccc2c3c1O[C@H]1[C@@H](O)C=C[C@H]4[C@@H](C2)N(C)CC[C@@]341 [Codeine]
AUC(0-t) ([1]; rat, plasma, inhaled or intranasal, 5 mg/kg): 1480 ng·h/mL
AUC(0-t) [1, 4]: 2840 ng·h/mL
bioavailability [1, 4]: 115%
AUC(0-t) ([1]; rat, plasma, iv, 10 mg/kg): 2460 ng·h/mL
concentration at 0 min ([1]; rat, plasma, iv, 10 mg/kg): 19400 ng/mL
concentration at 2 min ([1]; rat, plasma, iv, 10 mg/kg): 9400 ng/mL
concentration at 5 min ([1]; rat, plasma, iv, 10 mg/kg): 5200 ng/mL
concentration at 10 min ([1]; rat, plasma, iv, 10 mg/kg): 2700 ng/mL
concentration at 20 min ([1]; rat, plasma, iv, 10 mg/kg): 2040 ng/mL
concentration at 40 min ([1]; rat, plasma, iv, 10 mg/kg): 1220 ng/mL
concentration at 60 min ([1]; rat, plasma, iv, 10 mg/kg): 860 ng/mL
concentration at 0 min [1, 5]: 0 ng/mL
concentration at 2 min [1, 5]: 840 ng/mL
concentration at 5 min [1, 5]: 2880 ng/mL
concentration at 10 min [1, 5]: 3150 ng/mL
concentration at 20 min [1, 5]: 2240 ng/mL
concentration at 40 min [1, 5]: 600 ng/mL
concentration at 60 min [1, 5]: 560 ng/mL
concentration at 0 min [1, 6]: 0 ng/mL
concentration at 2 min [1, 6]: 1400 ng/mL
concentration at 5 min [1, 6]: 5100 ng/mL
concentration at 10 min [1, 6]: 7620 ng/mL
concentration at 20 min [1, 6]: 3320 ng/mL
concentration at 40 min [1, 6]: 1420 ng/mL
concentration at 60 min [1, 6]: 1100 ng/mL
Absorption following intranasal administration compared with intravenous ([1]; rats, IN vs IV): rapidly and completely absorbed
CSF levels for 5 mg/kg intranasally compared with 10 mg/kg intravenously [2]: much higher
Half-life in plasma [3]: 2 to 4 h
